As usually defined, the Ki is a measure of affinity in units of concentration, obtained from inhibition or displacement. A high value points to lower affinity.

Where a SMILES comes first, the peptide text is derived from it. Where no end group is shown, it is not given here. [ ]: non-standard residue; d: D form. The star is where a group is joined. 1Nal = N[C@@H](Cc1cccc2ccccc12)C(=O)O; Lauroyl = CCCCCCCCCCCC(=O)*; Nle = CCCC[C@H](N)C(=O)O; Octanoyl = CCCCCCCC(=O)*; Dap = NC[C@H](N)C(=O)O

One assay concerns fasted C57BL/6 mice. Put plainly: Food intake in fasted mice after SC administration. The conditions noted are these: SC administration; for % control: food intake vs saline. It is filed as in vivo, mouse. In a few lines: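 Male C57BL/6 mice, food-deprived 17 h, received saline, PrRP or lipidated analogs either SC at 1-10 mg/kg or ICV into the third ventricle at 4 nmol/mouse.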

Assay [1] has as its system MAPK/ERK1/2 signaling pathway in RC-4B/C cells. Put plainly: MAPK/ERK1/2 signaling in RC-4B/C cells (Western blot). Type of assay: cell-based, rat. The conditions noted are these: 10^−6 mol·l^−1, 5 minute incubation. The method, then:
RC-4B/C cells, which were used to determine if lipidated PrRP20 analogs are able to initiate the MAPK/ERK1/2 signaling pathway, were grown in 6-well plates up to the optimal density of […]. Seventeen hours before sample harvest, the growth medium was replaced by a serum-free medium lacking epidermal growth factor (EGF). The respective lipidated PrRP analog was added to each well in the final concentration of 10^−6 mol·l^−1. After a 5 minute incubation at 37° C., the plate was placed on ice and each well was rinsed three times with PBS pH 7.4 (137 mmol·l^−1 NaCl, 2.7 mmol·l^−1 KCl, 8 mmol·l^−1 Na2HPO4.2H2O a 1.76 mmol·l^−1 KH2PO4) and cooled to 4° C. […] Samples were collected in at least three independent experiments.
To determine if the lipidated PrRP20 analogs initiated the MAPK/ERK1/2 signaling pathway, Western blot analysis was used. Electrophoresis was performed on 5%/12% polyacrylamide gel in the presence of SDS (SDS-PAGE) on the instrument MiniProtean 3 (BioRad, Herkules, Calif., USA). Samples that were loaded on the gel were first disintegrated by ultrasound, then heated at 100° C. for 2 minutes, and centrifuged for 5 minutes at 500×g at room temperature. […] Electrophoresis was performed at a constant voltage of 100 V for 10 minutes, or for 60 minutes at 150 V.
To show the presence of phosphorylated proteins in the samples, the proteins from the SDS-PAGE gel were transferred to the Immobilon™-P PVDF (polyvinylidene difluoride) membrane (Sigma-Aldrich, USA). The transfer was performed in blotting buffer at pH 8.3 (25 mmol·l^−1 Tris, 192 mmol·l^−1 glycine and 20% methanol) for 20 hours at 4° C. at a constant voltage of 30 V.
After the protein transfer to the PVDF membrane, the membranes were washed for 5 minutes in TBS washing buffer (20 mmol·l^−1 Tris, 140 mmol·l^−1 NaCl and 0.1% Tween-20) and then incubated for 1 hour in blocking buffer (TBS with 5% non-fat milk powder and 5 mmol·l^−1 Na3VO4 and 50 mmol·l^−1 NaF) at room temperature. Further, the membranes were washed three times for 5 minutes using the TBS washing buffer. The membranes were then incubated with the primary antibody against phospho-p44/42 MAPK(Thr202/Tyr204) (Cell Signaling Technology, Beverly, USA) which was diluted in blocking buffer at 1:1000. After the next three washes with the TBS washing buffer for 5 minutes, the membranes were incubated for 1 hour with rabbit secondary antibody labeled with peroxidase (Sigma, St. Louis, USA) which was diluted in blocking buffer at 1:12,000.
The membranes were then washed three times in TBS washing buffer for 5 minutes and then the solution Femto (Pierce SuperSignal, Thermo Fisher Scientific, Rockford, Ill., USA) was applied. The induced chemiluminiscence was detected by a CCD camera (LAS 3000, Fuji Photo Film GmBH, Düsseldorf, Germany).
To assess the initiation of signaling pathways, a densitometric analysis using the program Quantity One (BioRad, Hercules, Calif., USA) was used. For statistical evaluation of the statistically significant response of the cellular signaling, one-way ANOVA with subsequent Dunnett post-hoc test was used. Data was statistically significant at P<0.05.
(In general: Immunoblotting shows a protein as a band on a membrane.)

Assay [2] addresses T1, rat PrRP receptor (GPR10) in RC-4B/C cells (Rattus norvegicus, UniProt Q64121).
T1 construct: host or cells: RC-4B/C rat pituitary cell line
T1 sequence (Q64121 1-370): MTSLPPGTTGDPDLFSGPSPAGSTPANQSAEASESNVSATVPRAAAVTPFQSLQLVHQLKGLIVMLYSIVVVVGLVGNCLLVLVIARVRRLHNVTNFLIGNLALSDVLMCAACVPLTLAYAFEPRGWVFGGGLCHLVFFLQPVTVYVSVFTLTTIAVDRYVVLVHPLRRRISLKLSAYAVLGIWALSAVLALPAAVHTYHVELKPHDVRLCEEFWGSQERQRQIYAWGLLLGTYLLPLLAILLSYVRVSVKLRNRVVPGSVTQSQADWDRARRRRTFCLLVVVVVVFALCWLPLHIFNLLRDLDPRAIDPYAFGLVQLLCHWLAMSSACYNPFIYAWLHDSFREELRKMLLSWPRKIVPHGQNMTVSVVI
Put plainly: Competitive binding to rat pituitary RC-4B/C cells. The conditions noted are these: ^125I-rat PrRP31, RC-4B/C cells. The method, then:
Competitive binding experiments were performed according to Motulsky and Neubig (Motulsky, A., et al., “Analyzing radioligand binding data,” Curr Protoc Neurosci, Chapter 7, Unit 7.5, 2002). The rat pituitary cell line RC-4B/C (ATCC, Manassas, USA) was grown on 24-well plates which had their bottom coated with polyethyleneimine. The cells were grown to the optimal density of 300-450 thousand per well. […] Plates were incubated for 60 minutes at room temperature. After incubation, the cells were solubilized in 0.1 mol/l solution of NaOH and the radioactivity bound to the cells was counted using a γ-counter. The experiments were performed in duplicate and repeated at least three times. For evaluation of competitive binding experiments, the program Graph Pad Prism Software (San Diego, Calif., USA) was used. A method of nonlinear regression assuming one-site binding was used.

The target of assay [3] is T2, rat PrRP receptor in RC-4B/C cells (rat, UniProt Q64121 1-370).
T2 construct: whole, on cells; also called the rat receptor; GPR10
T2 sequence (looked up): T1 sequence (Q64121 1-370)
Put plainly: competition with 125I-rat PrRP31 on RC-4B/C cells. As for the experimental part:
(§1) The rat pituitary cell line RC-4B/C (ATCC, Manassas, USA) was grown on 24-well plates which had their bottom coated with polyethyleneimine. The cells were grown to the optimal density of 300-450 thousand per well.
(§2) Plates were incubated for 60 minutes at room temperature. After incubation, the cells were solubilized in 0.1 mol/l solution of NaOH and the radioactivity bound to the cells was counted using a γ-counter. The experiments were performed in duplicate and repeated at least three times.

The target in assay [4] is T2, rat PrRP receptor in RC-4B/C cells. Put plainly: competition with 125I-rat PrRP31 on RC-4B/C cells; Ki by Cheng-Prusoff. The method, then:
as §1, §2
For evaluation of competitive binding experiments, the program Graph Pad Prism Software (San Diego, Calif., USA) was used. A method of nonlinear regression assuming one-site binding was used.

In the case of `CCCCCCCCCCCC(=O)NC[C@H](N)C(=O)N[C@@H](CCCNC(=N)N)C(=O)N[C@@H](C)C(=O)N[C@@H](Cc1c[nH]cn1)C(=O)N[C@@H](CCC(N)=O)C(=O)N[C@@H](Cc1c[nH]cn1)C(=O)N[C@@H](CO)C(=O)N[C@@H](CCCC)C(=O)N[C@@H](CCC(=O)O)C(=O)N[C@H](C(=O)N[C@@H](CCCNC(=N)N)C(=O)N[C@H](C(=O)N1CCC[C@H]1C(=O)N[C@@H](CC(=O)O)C(=O)N[C@H](C(=O)N[C@@H](CC(N)=O)C(=O)N1CCC[C@H]1C(=O)N[C@@H](C)C(=O)N[C@@H](Cc1c[nH]c2ccccc12)C(=O)N[C@@H](Cc1ccc(O)cc1)C(=O)N[C@H](C(=O)NCC(=O)N[C@@H](CCCNC(=N)N)C(=O)NCC(=O)N[C@H](C(=O)N[C@@H](CCCNC(=N)N)C(=O)N1CCC[C@H]1C(=O)N[C@H](C(=O)NCC(=O)N[C@@H](CCCNC(=N)N)C(=O)N[C@@H](Cc1ccccc1)C(N)=O)C(C)C)[C@@H](C)CC)[C@@H](C)O)[C@@H](C)CC)[C@@H](C)O)[C@@H](C)O` [Analog 3] (H-[Dap](Lauroyl)RAHQHS[Nle]ETRTPDINPAWYTGRGIRPVGRF-NH2), in the assay on fasted C57BL/6 mice (45 minutes, 5 mg/kg), the “food intake” value came to 0.12 g and the “% control” value is reported as 50%. In the assay on fasted C57BL/6 mice (300 minutes, 5 mg/kg), the “food intake” value worked out at 0.61 g and the “% control” value is on record as 60%. Moreover, in assay [1], the ERK signaling entry is “agonist”. For the same molecule, the “% of PrRP31 binding” value in assay [2] stood at 440%.
As for `CCCCCCCC(=O)NC[C@H](N)C(=O)N[C@@H](CCCNC(=N)N)C(=O)N[C@@H](C)C(=O)N[C@@H](Cc1c[nH]cn1)C(=O)N[C@@H](CCC(N)=O)C(=O)N[C@@H](Cc1c[nH]cn1)C(=O)N[C@@H](CO)C(=O)N[C@@H](CCCC)C(=O)N[C@@H](CCC(=O)O)C(=O)N[C@H](C(=O)N[C@@H](CCCNC(=N)N)C(=O)N[C@H](C(=O)N1CCC[C@H]1C(=O)N[C@@H](CC(=O)O)C(=O)N[C@H](C(=O)N[C@@H](CC(N)=O)C(=O)N1CCC[C@H]1C(=O)N[C@@H](C)C(=O)N[C@@H](Cc1c[nH]c2ccccc12)C(=O)N[C@@H](Cc1ccc(O)cc1)C(=O)N[C@H](C(=O)NCC(=O)N[C@@H](CCCNC(=N)N)C(=O)NCC(=O)N[C@H](C(=O)N[C@@H](CCCNC(=N)N)C(=O)N1CCC[C@H]1C(=O)N[C@H](C(=O)NCC(=O)N[C@@H](CCCNC(=N)N)C(=O)N[C@@H](Cc1ccccc1)C(N)=O)C(C)C)[C@@H](C)CC)[C@@H](C)O)[C@@H](C)CC)[C@@H](C)O)[C@@H](C)O` [Analog 2] (H-[Dap](Octanoyl)RAHQHS[Nle]ETRTPDINPAWYTGRGIRPVGRF-NH2), the ERK signaling result in assay [1] is listed as “agonist”. Besides, the “% of PrRP31 binding” value in assay [2] amounted to 172%.
`CCCC[C@H](NC(=O)[C@H](CO)NC(=O)[C@H](Cc1c[nH]cn1)NC(=O)[C@H](CCC(N)=O)NC(=O)[C@H](Cc1c[nH]cn1)NC(=O)[C@H](C)NC(=O)[C@H](CCCNC(=N)N)NC(=O)[C@@H](N)CN)C(=O)N[C@@H](CCC(=O)O)C(=O)N[C@H](C(=O)N[C@@H](CCCNC(=N)N)C(=O)N[C@H](C(=O)N1CCC[C@H]1C(=O)N[C@@H](CC(=O)O)C(=O)N[C@H](C(=O)N[C@@H](CC(N)=O)C(=O)N1CCC[C@H]1C(=O)N[C@@H](C)C(=O)N[C@@H](Cc1c[nH]c2ccccc12)C(=O)N[C@@H](Cc1ccc(O)cc1)C(=O)N[C@H](C(=O)NCC(=O)N[C@@H](CCCNC(=N)N)C(=O)NCC(=O)N[C@H](C(=O)N[C@@H](CCCNC(=N)N)C(=O)N1CCC[C@H]1C(=O)N[C@H](C(=O)NCC(=O)N[C@@H](CCCNC(=N)N)C(=O)N[C@@H](Cc1cccc2ccccc12)C(N)=O)C(C)C)[C@@H](C)CC)[C@@H](C)O)[C@@H](C)CC)[C@@H](C)O)[C@@H](C)O` [Analog 7] (H-[Dap]RAHQHS[Nle]ETRTPDINPAWYTGRGIRPVGR[1Nal]-NH2): in the assay with fasted C57BL/6 mice (45 minutes, 10 mg/kg), the “food intake” value is listed as 0.16 g and the “% control” value was determined as 49%. Besides, in the assay with fasted C57BL/6 mice (300 minutes, 10 mg/kg), the “food intake” value worked out at 0.88 g and the “% control” value was 81%. In assay [1], the ERK signaling entry is “agonist”. The “% of PrRP31 binding” value in assay [2] was found to be 8%.

B1: analog no. 3 (peptide)
peptide: [Dap](Lauroyl)RAHQHS[Nle]ETRTPDINPAWYTGRGIRPVGRF-NH2
modifications: N-terminus assumed
SMILES: CCCCCCCCCCCC(=O)NC[C@H](N)C(=O)N[C@@H](CCCNC(=N)N)C(=O)N[C@@H](C)C(=O)N[C@@H](Cc1c[nH]cn1)C(=O)N[C@@H](CCC(N)=O)C(=O)N[C@@H](Cc1c[nH]cn1)C(=O)N[C@@H](CO)C(=O)N[C@@H](CCCC)C(=O)N[C@@H](CCC(=O)O)C(=O)N[C@H](C(=O)N[C@@H](CCCNC(=N)N)C(=O)N[C@H](C(=O)N1CCC[C@H]1C(=O)N[C@@H](CC(=O)O)C(=O)N[C@H](C(=O)N[C@@H](CC(N)=O)C(=O)N1CCC[C@H]1C(=O)N[C@@H](C)C(=O)N[C@@H](Cc1c[nH]c2ccccc12)C(=O)N[C@@H](Cc1ccc(O)cc1)C(=O)N[C@H](C(=O)NCC(=O)N[C@@H](CCCNC(=N)N)C(=O)NCC(=O)N[C@H](C(=O)N[C@@H](CCCNC(=N)N)C(=O)N1CCC[C@H]1C(=O)N[C@H](C(=O)NCC(=O)N[C@@H](CCCNC(=N)N)C(=O)N[C@@H](Cc1ccccc1)C(N)=O)C(C)C)[C@@H](C)CC)[C@@H](C)O)[C@@H](C)CC)[C@@H](C)O)[C@@H](C)O
notes: analog of rat PrRP31
With B1, in assay [3], the “% of PrRP31 binding” value turned out to be 440%. The molecule further came in with an inhibition constant (Ki) in assay [4] of 1.12 nM.

Values taken from patent US9937235B2, “Lipidated peptides as anti-obesity agents” (USTAV ORGANICKE CHEMIE A BIOCHEMIE AKADEMIE VED CR, V.V.I, priority 2012, dated 2018).
